These results are taken from patent publication US20100029620A1, “SUBSTITUTED TRIAZOLINE, TETRAZOLONE AND IMIDAZOLONE DERIVATIVES FOR USE AS A MEDICINE” (JANSSEN PHARMACEUTICA N.V., priority 2004, published 2010).

Each structure is given as a SMILES string.

Assay [1] addresses T1, human adrenergic-α2A receptor (Homo sapiens, UniProt P08913).
T1 construct: expressed in transfected cells; membrane preparation
T1 sequence (P08913 1-465): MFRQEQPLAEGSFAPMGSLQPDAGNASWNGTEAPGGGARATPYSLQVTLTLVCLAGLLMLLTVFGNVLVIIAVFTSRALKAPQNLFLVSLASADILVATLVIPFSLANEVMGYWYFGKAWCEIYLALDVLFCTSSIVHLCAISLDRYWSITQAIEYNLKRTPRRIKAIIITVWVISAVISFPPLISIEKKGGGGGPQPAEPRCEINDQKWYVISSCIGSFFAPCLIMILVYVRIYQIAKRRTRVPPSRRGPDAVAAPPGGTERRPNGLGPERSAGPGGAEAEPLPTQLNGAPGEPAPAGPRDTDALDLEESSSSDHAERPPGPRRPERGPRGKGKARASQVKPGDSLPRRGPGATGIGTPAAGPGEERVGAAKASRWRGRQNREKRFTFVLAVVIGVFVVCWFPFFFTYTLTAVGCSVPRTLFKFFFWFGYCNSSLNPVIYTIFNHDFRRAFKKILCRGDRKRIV
The experiment in a line: Radioligand binding experiment for α2A-adrenoceptor ([3H]-raulwolscine competition, CHO cell membranes). Particulars: [3H]raulwolscine 1 nM, membranes of CHO cells transfected with human α2A receptor; read-out: pIC50 α2A (converted). Here is the method: (§1) The interaction of the compounds of Formula (I) with α2C-adrenoceptor receptors was assessed in in vitro radioligand binding experiments. In general, a low concentration of a radioligand with a high binding affinity for a particular receptor or transporter is incubated with a sample of a tissue preparation enriched in a particular receptor or transporter or with a preparation of cells expressing cloned human receptors in a buffered medium. During the incubation, the radioligand binds to the receptor or transporter. When equilibrium of binding is reached, the receptor bound radioactivity is separated from the non-bound radioactivity, and the receptor- or transporter-bound activity is counted. The interaction of the test compounds with the receptor is assessed in competition binding experiments. Various concentrations of the test compound are added to the incubation mixture containing the receptor- or transporter preparation and the radioligand. The test compound in proportion to its binding affinity and its concentration inhibits binding of the radioligand. The radioligand used for […] receptor binding was [^3H]-raulwolscine.
(§2) CHO cells, stabile transfected with human adrenergic-α2A-, -α2B or α2C receptor cDNA, were cultured in Dulbecco's Modified Eagle's Medium (DMEM)/Nutrient mixture Ham's F12 (ratio 1:1)(Gibco, Gent-Belgium) supplemented with 10% heat inactivated fetal calf serum (Life Technologies, Merelbeke-Belgium) and antibiotics (100 IU/ml penicillin G, 100 μg/ml streptomycin sulphate, 110 μg/ml pyruvic acid and 100 μg/ml L-glutamine). One day before collection, cells were induced with 5 mM sodiumbutyrate. Upon 80-90% of confluence, cells were scraped in phosphate buffered saline without Ca^2+ and Mg^2+ and collected by centrifugation at 1500×g for 10 min. The cells were homogenised in Tris-HCl 50 mM using an Ultraturrax homogenizer and centrifuged for 10 min at 23,500×g. The pellet was washed once by resuspension and rehomogenization and the final pellet was resuspended in Tris-HCl, divided in 1 ml aliquots and stored at −70° C.
(§3) Membranes were thawed and re-homogenized in incubation buffer (glycylglycine 25 mM, pH 8.0). In a total volume of 500 μl, 2-10 μg protein was incubated with [^3H]raulwolscine (NET-722) (New England Nuclear, USA) (1 nM final concentration) with or without competitor for 60 min at 25° C. followed by rapid filtration over GF/B filter using a Filtermate196 harvester (Packard, Meriden, Conn.). Filters were rinsed extensively with ice-cold rinsing buffer (Tris-HCl 50 mM pH 7.4). Filter-bound radioactivity was determined by scintillation counting in a Topcount (Packard, Meriden, CT) and results were expressed as counts per minute (cpm). Non-specific binding was determined in the presence of 1 μM oxymetazoline for hα2A- and hα2B receptors and 1 μM spiroxatrine for hα2C receptors.
(§4) Data from assays in the presence of compound were calculated as a percentage of total binding measured in the absence of test compound. Inhibition curves, plotting percent of total binding versus the log value of the concentration of the test compound, were automatically generated, and sigmoidal inhibition curves were fitted using non-linear regression. The pIC50 values of test compounds were derived from individual curves.

For assay [2], the target named is T2, human adrenergic-α2B receptor (Homo sapiens, UniProt P18089).
T2 construct: expressed in transfected cells; membrane preparation
T2 sequence (P18089 1-450): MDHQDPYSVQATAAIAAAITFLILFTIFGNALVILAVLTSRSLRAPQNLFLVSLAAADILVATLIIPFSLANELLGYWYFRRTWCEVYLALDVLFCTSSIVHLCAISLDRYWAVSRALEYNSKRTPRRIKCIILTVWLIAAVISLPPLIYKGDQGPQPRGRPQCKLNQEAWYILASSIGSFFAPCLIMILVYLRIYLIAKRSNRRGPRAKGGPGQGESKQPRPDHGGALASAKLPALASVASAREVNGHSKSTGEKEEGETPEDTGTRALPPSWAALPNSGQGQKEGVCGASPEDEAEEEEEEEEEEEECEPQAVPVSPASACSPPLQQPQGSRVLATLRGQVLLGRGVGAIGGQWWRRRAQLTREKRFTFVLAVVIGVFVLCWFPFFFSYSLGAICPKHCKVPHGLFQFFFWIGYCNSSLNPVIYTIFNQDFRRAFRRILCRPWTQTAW
Put plainly: Radioligand binding experiment for α2B-adrenoceptor ([3H]-raulwolscine competition, CHO cell membranes). The note with it: [3H]raulwolscine 1 nM, membranes of CHO cells transfected with human α2B receptor; read-out: pIC50 α2B (converted). On the procedure:
as §1, §2, §3, §4

Assay [3] addresses T3, human adrenergic-α2C receptor (Homo sapiens, UniProt P18825).
T3 construct: expressed in transfected cells; membrane preparation
T3 sequence (P18825 1-462): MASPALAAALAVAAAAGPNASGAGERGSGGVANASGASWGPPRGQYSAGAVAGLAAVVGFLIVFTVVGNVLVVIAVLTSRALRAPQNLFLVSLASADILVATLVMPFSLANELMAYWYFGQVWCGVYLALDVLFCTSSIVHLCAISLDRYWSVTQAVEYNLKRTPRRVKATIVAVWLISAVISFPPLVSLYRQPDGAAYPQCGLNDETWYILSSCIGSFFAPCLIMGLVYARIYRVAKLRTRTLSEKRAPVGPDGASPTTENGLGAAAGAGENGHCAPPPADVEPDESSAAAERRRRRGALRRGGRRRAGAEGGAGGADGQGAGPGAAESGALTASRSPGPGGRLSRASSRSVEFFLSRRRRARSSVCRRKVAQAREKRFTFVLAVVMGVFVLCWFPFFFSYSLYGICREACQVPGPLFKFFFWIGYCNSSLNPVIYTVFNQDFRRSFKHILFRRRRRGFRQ
The experiment in a line: Radioligand binding experiment for α2C-adrenoceptor ([3H]-raulwolscine competition, CHO cell membranes). Particulars: [3H]raulwolscine 1 nM, membranes of CHO cells transfected with human α2C receptor; read-out: pIC50 α2C (converted). On the procedure: as §1, §2, §3, §4

As to `CC(NCCOc1ccccc1)C(C)n1ncn(-c2ccc(N3CCN(c4ccc(O)cc4)CC3)cc2)c1=O` (racemic) [compound 5], the IC50 in assay [1] was 501 nM; in assay [2], 501 nM; in assay [3] it was 10 nM.

With `CC(NCCOc1ccccc1)C(C)n1ncn(-c2ccc(N3CCN(c4ccc(O)cc4)CC3)cc2)c1=O` (single isomer, unassigned) [compound 4], the IC50 is 2510 nM in assay [1], 200 nM in assay [2] and 6.31 nM in assay [3].

Take `CC(NCCOc1ccccc1)C(C)n1ncn(-c2ccc(N3CCN(c4ccc(O)cc4)CC3)cc2)c1=O` (single isomer, unassigned) [compound 6]: the IC50 is 7940 nM in assay [1] and 200 nM in assay [3].

For the compound `COc1ccc(N2CCN(c3ccc(-n4cnn(CCN(C)CCOc5ccccc5)c4=O)cc3)CC2)cc1` [compound 9], the IC50 in assay [1] was over 10000 nM; in assay [3], 794 nM.

Regarding `COc1ccc(N2CCN(c3ccc(-n4cnn(Cc5ccc(CN)cc5)c4=O)cc3)CC2)cc1` [compound 11], the IC50 in assay [1] is 7940 nM; in assay [3] it was 794 nM.

On to `COc1ccccc1C1CCN(c2ccc(-n3cnn(CCNCCOc4ccccc4)c3=O)cc2)C1` (stereo not drawn) [compound 15], for which the IC50 in assay [1] was 794 nM; in assay [3] it was 100 nM.

Turning to `O=c1n(-c2ccc(N3CCOCC3)cc2)cnn1CCNCCOc1ccccc1` [compound 22], the IC50 in assay [1] was 794 nM; in assay [3] it was 50.1 nM.

As to `O=c1n(-c2ccc(CN3CCOCC3)cc2)cnn1CCNCCOc1ccc(F)cc1` [compound 25], the values for the IC50 in assay [1] and in assay [3] were 2510 nM and 50.1 nM, respectively.

For the compound `C/C(=C\c1ccc(F)cc1)CN1CCN(CCn2ncn(Cc3ccc(CN)cc3)c2=O)CC1` [compound 35], the IC50 in assay [1] was 126 nM; in assay [3], 50.1 nM.

As for `COc1ccc(N2CCN(c3ccc(-n4cnn(C5CCN(Cc6ccc7c(c6)OCCO7)CC5)c4=O)cc3)CC2)cc1` [compound 56], the values for the IC50 in assay [1] and in assay [3] were over 10000 nM and 1000 nM, respectively.

For the compound `COc1ccc(N2CCN(c3ccc(-n4cnn(C5CCN(C/C(C)=C/c6ccccc6)CC5)c4=O)cc3)CC2)cc1` [compound 57], the IC50 in assay [1] is over 10000 nM; in assay [3], 79.4 nM.

Take `COc1ccc(N2CCN(c3ccc(-n4cnn(C5CCN(CCOc6ccccc6)CC5)c4=O)cc3)CC2)cc1` [compound 58]: the results for the IC50 in assay [1] and in assay [3] were 1260 nM and 50.1 nM, respectively.

With `COc1ccc(N2CCN(c3ccc(-n4cnn(Cc5ccc(CN6CCOCC6)cc5)c4=O)cc3)CC2)cc1` [compound 59], the IC50 was 1580 nM in assay [1] and 631 nM in assay [3].

On to `C/C(=C\c1ccccc1)CN1CCC(n2ncn(-c3ccc(CN4CCOCC4)cc3)c2=O)CC1` [compound 69], for which the IC50 in assay [1] was 158 nM; in assay [3], 25.1 nM.

`C/C(=C\c1ccccc1)CN1CCC(Cn2ncn(-c3ccc(CN4CCOCC4)cc3)c2=O)CC1` [compound 70]: the IC50 was 398 nM in assay [1] and 39.8 nM in assay [3].

Take `O=c1n(-c2ccc(CN3CCOCC3)cc2)cnn1CC1CCN(Cc2ccc3ccccc3c2)CC1` [compound 74]: the IC50 is 794 nM in assay [1] and 158 nM in assay [3].

For the compound `Cc1cc(CN2CCC(Cn3ncn(-c4ccc(CN5CCOCC5)cc4)c3=O)CC2)oc1C` [compound 76], the IC50 was over 10000 nM in assay [1] and 794 nM in assay [3].

Regarding `O=c1n(-c2ccc(CN3CCOCC3)cc2)cnn1CC1CCN(Cc2cc3ccccc3o2)CC1` [compound 77], the IC50 in assay [1] is 3160 nM; in assay [3], 251 nM.

As for `C/C(=C\c1ccccc1)CN1CCC(n2cnn(-c3ccc(CN4CCOCC4)cc3)c2=O)CC1` [compound 80], the IC50 in assay [1] is 63.1 nM; in assay [3] it was 39.8 nM.

Regarding `C/C(=C\c1ccccc1)CN1CCC(n2cnn(Cc3ccc(CN4CCOCC4)cc3)c2=O)CC1` [compound 81], the IC50 is 631 nM in assay [1] and 79.4 nM in assay [3].

Consider `O=c1n(CCNCCOc2ccccc2)nnn1-c1ccc(CN2CCOCC2)cc1` [compound 106], for which the figures for the IC50 in assay [1] and in assay [3] were 398 nM and 39.8 nM, respectively.

Consider `N#Cc1cccc(NCCCN2CCN(CCn3ncn(CC4CCN(CCOc5ccccc5)CC4)c3=O)CC2)c1` [compound 124], for which the IC50 in assay [1] was 63.1 nM; in assay [3] it was 1.58 nM.

Consider `O=c1n(CC2CCN(CCOc3ccccc3)CC2)cnn1CCN1CCN(Cc2ccc3ncccc3c2)CC1` [compound 126], for which the IC50 in assay [1] was 200 nM; in assay [3] it was 12.6 nM.

`O=c1n(CC2CCN(CCOc3ccccc3)CC2)cnn1CCN1CCN(c2cccc3c2OCCO3)CC1` [compound 127]: the IC50 was 63.1 nM in assay [1] and 3.98 nM in assay [3].

As to `O=c1n(CC2CCN(CCOc3ccccc3)CC2)cnn1CCN1CCN(Cc2cc3ccccc3[nH]2)CC1` [compound 128], the IC50 is 79.4 nM in assay [1] and 12.6 nM in assay [3].

For `O=c1n(CC2CCN(CCOc3ccccc3)CC2)cnn1CCN1CCN(Cc2c[nH]c3ccc(F)cc23)CC1` [compound 129], the figures for the IC50 in assay [1] and in assay [3] were 50.1 nM and 2 nM, respectively.

Consider `O=c1n(CC2CCN(CCOc3ccccc3)CC2)cnn1CCN1CCN(Cc2cc3ccccc3s2)CC1` [compound 130], for which the IC50 is 50.1 nM in assay [1] and 2.51 nM in assay [3].

As for `O=c1n(CC2CCN(CCOc3ccccc3)CC2)cnn1CCN1CC2CC=CCC1CN2c1ccc2ccccc2c1` (stereo not drawn) [compound 131], the figures for the IC50 in assay [1] and in assay [3] were 126 nM and 7.94 nM, respectively.

For the compound `CC(C)(C)C(=O)Cn1cnn(CC2CCN(CCOc3ccccc3)CC2)c1=O` [compound 132], the results for the IC50 in assay [1] and in assay [3] were 63.1 nM and 5.01 nM, respectively.
